Values quoted from earlier work in patent US8679304B2, “Apparatus for creating bioactive solution” (priority 2008, dated 2014).

Test system: Cryptosporidium oocysts
Details: pH 7

[O][Cl+][O-] [chlorine dioxide]
approximate CT values for 99% inactivation: ~78
